Test results taken from ChEMBL document CHEMBL5329224, “Structure-Based Design and Evaluation of Reversible KRAS G13D Inhibitors” (ACS Med Chem Lett, 2024).

What was measured:
GTPase KRas = GTPase KRas (Homo sapiens, UniProt P01116, G13D); test: Inhibition of Biotinylated KRAS G13D mutant (unknown origin) incubated for 20 mins in presence of BODIPY-GDP by HTRF assay
[1] = Selectivity ratio of IC50 for inhibition of Biotinylated KRAS G13D mutant (unknown origin) to IC50 for inhibition of Biotinylated wild type KRAS (unknown origin)
[2] = Volume of distribution at steady state in CD-1 mouse at 1 mg/kg,iv measured upto 9 hrs by LC-MS/MS analysis; format: ADME, organism-based; settings: in vivo
[3] = Half life in CD-1 mouse at 1 mg/kg,iv measured upto 9 hrs by LC-MS/MS analysis; format: ADME, organism-based; settings: in vivo
HCT-116 = test: Antiproliferative activity against human HCT-116 cells assessed as cell growth inhibition incubated for 7 days by Cell Titer-Glo luminescent assay; format: functional, cell-based; settings: HCT-116, 168 h
[4] = Dissociation constant, pKa of compound; format: physicochemical

Sequence of GTPase KRas (P01116 whole entry G13D): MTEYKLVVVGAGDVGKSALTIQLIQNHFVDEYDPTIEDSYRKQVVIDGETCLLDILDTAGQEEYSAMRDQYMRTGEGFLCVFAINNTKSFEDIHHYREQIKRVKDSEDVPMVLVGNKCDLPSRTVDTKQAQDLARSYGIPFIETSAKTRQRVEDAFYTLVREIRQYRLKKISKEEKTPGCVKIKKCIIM

SMILES | IC50 (GTPase KRas) | Ratio IC50 [1] | further results
Cc1cc(N)nc(-c2cc3nc(OC[C@@H]4CCCN4C)nc4c3c(c2Cl)OC[C@@H]2CN(C(=O)CC3CCNCC3)CCN42)c1C(F)(F)F | 4800 nM | 2 | –
C=C1CN2CCC[C@@]2(COc2nc3c4c(c(Cl)c(-c5nc(N)cc(C)c5C(F)(F)F)c(F)c4n2)OC[C@@H]2CN(C(=O)/C=C/c4nccc5c4CNCC5)CCN32)C1 | 1.5 nM | – | Vdss [2]: 0.42 L/kg; t1/2 [3]: 3.2 h; IC50 (HCT-116): 6100 nM
Cc1cc(N)nc(-c2cc3nc(OC[C@@H]4CCCN4C)nc4c3c(c2Cl)OC[C@@H]2CN(C(=O)C3(N)CC3)CCN42)c1C(F)(F)F | 550 nM | 1.8 | –
C=C1CN2CCC[C@@]2(COc2nc3c4c(c(Cl)c(-c5nc(N)cc(C)c5C(F)(F)F)cc4n2)OC[C@@H]2CN(C(=O)/C=C/c4nccc5c4CN(C)CC5)CCN32)C1 | 49 nM | 0.88 | –
C=C1CN2CCC[C@@]2(COc2nc(N3CCN(C(=O)/C=C/c4cc(CNC)ccn4)C[C@@H]3C)c3cc(Cl)c(-c4nc(N)cc(C)c4C(F)(F)F)c(F)c3n2)C1 | 530 nM | 5.7 | pKa [4]: 8.4
Cc1cc(N)nc(-c2cc3nc(OC[C@@H]4CCCN4C)nc4c3c(c2Cl)OC[C@@H]2CN(C(=O)C3CC35CNC5)CCN42)c1C(F)(F)F (mixture of isomers) | 2400 nM | 1.3 | –
Cc1cc(N)nc(-c2cc3nc(OC[C@@H]4CCCN4C)nc4c3c(c2Cl)OC[C@@H]2CN(C(=O)[C@H](C)N(C)C)CCN42)c1C(F)(F)F | 8200 nM | 0.94 | –
C=C1CN2CCC[C@@]2(COc2nc(N3CCN(C(=O)/C=C/c4cccc5c4CNCC5)C[C@@H]3C)c3cc(Cl)c(-c4nc(N)cc(C)c4C(F)(F)F)c(F)c3n2)C1 | 690 nM | – | Vdss [2]: 0.9 L/kg; t1/2 [3]: 7.6 h; IC50 (HCT-116): 2100 nM
Cc1cc(N)nc(-c2cc3nc(OC[C@@H]4CCCN4C)nc4c3c(c2Cl)OC[C@@H]2CN(C(=O)C#CC3CCNC3)CCN42)c1C(F)(F)F (mixture of isomers) | 1600 nM | 2.3 | –
COC1CC(N)(C(=O)N2CCN3c4nc(OC[C@@H]5CCCN5C)nc5cc(-c6nc(N)cc(C)c6C(F)(F)F)c(Cl)c(c45)OC[C@@H]3C2)C1 (mixture of isomers) | 880 nM | 1.5 | –
Cc1cc(N)nc(-c2cc3nc(OC[C@@H]4CCCN4C)nc4c3c(c2Cl)OC[C@@H]2CN(C(=O)C3CC35CCNCC5)CCN42)c1C(F)(F)F (mixture of isomers) | 2400 nM | 2.1 | –
Cc1cc(N)nc(-c2cc3nc(OC[C@@H]4CCCN4C)nc4c3c(c2Cl)OC[C@@H]2CN(C(=O)CCC3CCNC3)CCN42)c1C(F)(F)F (mixture of isomers) | 2100 nM | 2 | –
C=C1CN2CCC[C@@]2(COc2nc(N3CCN(C(=O)/C=C/c4cccc5c4CN4CCC5C4)C[C@@H]3C)c3cc(Cl)c(-c4nc(N)cc(C)c4C(F)(F)F)c(F)c3n2)C1 (stereo in doubt; form 2) [listing 1 of 2 here] | – | 27 | –
C=C1CN2CCC[C@@]2(COc2nc(N3CCN(C(=O)/C=C/c4cccc5c4CN4CCC5C4)C[C@@H]3C)c3cc(Cl)c(-c4nc(N)cc(C)c4C(F)(F)F)c(F)c3n2)C1 (stereo in doubt; form 1) [listing 1 of 2 here] | – | 29 | –
C=C1CN2CCC[C@@]2(COc2nc(N3CCN(C(=O)/C=C/c4cc(CN(C)C)c(C)cn4)C[C@@H]3C)c3cc(Cl)c(-c4nc(N)cc(C)c4C(F)(F)F)c(F)c3n2)C1 | 520 nM | 9.2 | –
C=C1CN2CCC[C@@]2(COc2nc(N3CCN(C(=O)/C=C/c4cccc5c4CNC(C)(C)C5)C[C@@H]3C)c3cc(Cl)c(-c4nc(N)cc(C)c4C(F)(F)F)c(F)c3n2)C1 | 460 nM | 16 | –
C=C1CN2CCC[C@@]2(COc2nc3c4c(c(Cl)c(-c5nc(N)cc(C)c5C(F)(F)F)cc4n2)OC[C@@H]2CN(C(=O)/C=C/c4nccc5c4CNCC5)CCN32)C1 | 13 nM | 7.3 | –
C=C1CN2CCC[C@@]2(COc2nc(N3CCN(C(=O)/C=C/c4cccc5c4CN4CCC5C4)C[C@@H]3C)c3cc(Cl)c(-c4nc(N)cc(C)c4C(F)(F)F)c(F)c3n2)C1 (stereo in doubt; form 2) [listing 2 of 2 here] | 550 nM | – | –

The next lines start with results.

IC50 (GTPase KRas) | Ratio IC50 [1] | SMILES | further results
14000 nM | 0.41 | Cc1cc(N)nc(-c2cc3nc(OC[C@@H]4CCCN4C)nc4c3c(c2Cl)OC[C@@H]2CN(C(=O)C3CC(N)CCO3)CCN42)c1C(F)(F)F (mixture of isomers) | –
1700 nM | 2.5 | Cc1cc(N)nc(-c2cc3nc(OC[C@@H]4CCCN4C)nc4c3c(c2Cl)OC[C@@H]2CN(C(=O)CC[C@@H]3CCCCN3)CCN42)c1C(F)(F)F | –
1600 nM | 2.5 | Cc1cc(N)nc(-c2cc3nc(OC[C@@H]4CCCN4C)nc4c3c(c2Cl)OC[C@@H]2CN(C(=O)C3CCC5(CNC5)O3)CCN42)c1C(F)(F)F (mixture of isomers) | –
2000 nM | 2.3 | Cc1cc(N)nc(-c2cc3nc(OC[C@@H]4CCCN4C)nc4c3c(c2Cl)OC[C@@H]2CN(C(=O)CC[C@H]3CCCCN3)CCN42)c1C(F)(F)F | –
2700 nM | 5.9 | Cc1cc(N)nc(-c2c(Cl)c3c4c(ncnc4c2F)N2CCN(C(=O)/C=C/c4nccc5c4CNCC5)C[C@H]2CO3)c1C(F)(F)F | –
180 nM | 6.1 | Cc1cc(N)nc(-c2cc3nc(OC[C@@H]4CCCN4C)nc4c3c(c2Cl)OC[C@@H]2CN(C(=O)/C=C/c3nccc5c3CNCC5)CCN42)c1C(F)(F)F | –
2600 nM | 2.1 | Cc1cc(N)nc(-c2cc3nc(OC[C@@H]4CCCN4C)nc4c3c(c2Cl)OC[C@@H]2CN(C(=O)C[C@@H]3CCNC3)CCN42)c1C(F)(F)F | –
4.1 nM | 1.2 | C=C1CN2CCC[C@@]2(COc2nc(N3CCN(C(=O)/C=C/c4cc(CN5CCOCC5)ccn4)C[C@@H]3C)c3cc(Cl)c(-c4nc(N)cc(C)c4C(F)(F)F)c(F)c3n2)C1 | pKa [4]: 5.4
2700 nM | 2.5 | Cc1cc(N)nc(-c2cc3nc(OC[C@@H]4CCCN4C)nc4c3c(c2Cl)OC[C@@H]2CN(C(=O)CCN)CCN42)c1C(F)(F)F | –
1900 nM | 2.4 | Cc1cc(N)nc(-c2cc3nc(OC[C@@H]4CCCN4C)nc4c3c(c2Cl)OC[C@@H]2CN(C(=O)CC[C@@]3(C)CCCN3)CCN42)c1C(F)(F)F | –
9000 nM | 1.1 | Cc1cc(N)nc(-c2cc3nc(OC[C@@H]4CCCN4C)nc4c3c(c2Cl)OC[C@@H]2CN(C(=O)CC3CC5(CCC5)CN3)CCN42)c1C(F)(F)F (mixture of isomers) | –
340 nM | 15 | C=C1CN2CCC[C@@]2(COc2nc(N3CCN(C(=O)/C=C/c4cc(C5CCN(C)CC5)c(C)cn4)C[C@@H]3C)c3cc(Cl)c(-c4nc(N)cc(C)c4C(F)(F)F)c(F)c3n2)C1 | –
500 nM | 9.6 | C=C1CN2CCC[C@@]2(COc2nc(N3CCN(C(=O)/C=C/c4cc(CNC)c(C)cn4)C[C@@H]3C)c3cc(Cl)c(-c4nc(N)cc(C)c4C(F)(F)F)c(F)c3n2)C1 | –
3000 nM | 1.5 | Cc1cc(N)nc(-c2cc3nc(OC[C@@H]4CCCN4C)nc4c3c(c2Cl)OC[C@@H]2CN(C(=O)[C@@H]3CC[C@H]3N)CCN42)c1C(F)(F)F | –
1300 nM | 2.5 | Cc1cc(N)nc(-c2cc3nc(OC[C@@H]4CCCN4C)nc4c3c(c2Cl)OC[C@@H]2CN(C(=O)CCC3(N)CCOC3)CCN42)c1C(F)(F)F (mixture of isomers) | –
3500 nM | 1.1 | Cc1cc(N)nc(-c2cc3nc(OC[C@@H]4CCCN4C)nc4c3c(c2Cl)OC[C@@H]2CN(C(=O)C[C@H]3CCC35CNC5)CCN42)c1C(F)(F)F | –
3200 nM | 2.2 | Cc1cc(N)nc(-c2cc3nc(OC[C@@H]4CCCN4C)nc4c3c(c2Cl)OC[C@@H]2CN(C(=O)C3CCNCC3)CCN42)c1C(F)(F)F | –
410 nM | – | C=C1CN2CCC[C@@]2(COc2nc(N3CCN(C(=O)/C=C/c4cccc5c4CN4CCC5C4)C[C@@H]3C)c3cc(Cl)c(-c4nc(N)cc(C)c4C(F)(F)F)c(F)c3n2)C1 (stereo in doubt; form 1) [listing 2 of 2 here] | –
